This data set can be described thus: Stability and confirmation analysis of stock and dose formulations. The data set is classed as physicochemical. As to the method: Brincidofovir injectable liquid stock formulation was prepared to 15 mg/mL brincidofovir, compounded from stock solutions inclusive of three (3) steps: (1) 2× sodium phosphate buffer solution (400 mM, pH=8.0) was prepared; (2) 1.0 N sodium hydroxide solution was purchased; brincidofovir injectable liquid stock formulation (15 mg/mL brincidofovir, 200 mM sodium phosphate, pH=8.0) from solid brincidofovir, 1.0 N sodium hydroxide solution, 2× sodium phosphate buffer solution and WFI (water for injection) was prepared.
The brincidofovir injectable liquid stock formulation is stable for 28 days under refrigerated conditions (2 to 8° C.). Brincidofovir injectable liquid stock formulation was diluted with 5% dextrose to yield the desired dose concentration.
The brincidofovir stock solution of 15.0 mg/mL was stable for 24 hours when stored at room temperature (nominally 20° C.) and for 8, 14 and 28 days when stored at 2 to 8° C.
Two samples (5 mL each) were taken on the day of preparation from the middle region of each dosing formulation (including control) prepared for each week. One sample was analyzed, in duplicate, for dose confirmation analysis and one sample was retained refrigerated (2 to 8° C.) (Due to initial results outside the study acceptance plan criteria (±10% of nominal), the Group 2 retained samples were re-analyzed for Weeks 1 and 2).
Analysis of preliminary mixes confirmed that the test item was stable in the vehicle for at least 24 hours at room temperature (nominally 20° C.) and for at least 8 days at 2 to 8° C. (under storage conditions used in this study). Analyses conducted during the treatment period confirmed that with the exception of the Day 1, 1 mg/mL (Group 2) formulation, dose solutions of appropriate concentration were administered. The Day 1, 1 mg/mL dose solution was 86.7% of nominal. Without wishing to be bound by theory, it was concluded that due to interactions at the meniscus, the volume collected for dose formulation analysis may have lowered the analysis results. The volume collected for analysis was increased for subsequent weekly preparations and confirmed to be of appropriate concentration.

The structures appear in SMILES notation.

As to `CCCCCCCCCCCCCCCCOCCCOP(=O)(O)CO[C@H](CO)Cn1ccc(N)nc1=O` [Brincidofovir], the “Stable for (refrigerated)” value (0.05 mg/mL and 2.0 mg/mL, 2 to 8 °C) is on record as “at least 8 days”. In addition, the “Stable for (room temperature)” value (0.05 mg/mL and 2.0 mg/mL, room temperature) is on record as “at least 24 hours”. In addition, the “ANALYTICAL CONCENTRATION (% of Nominal)” value is listed as 86.7 % of Nominal (dose formulation Day 1, Group 2, nominal 1 (ppm) OR (mg/mL)); 76.9 % of Nominal (dose formulation Day 1, Group 2 Back-up, nominal 1 (ppm) OR (mg/mL)); 75.5 % of Nominal (dose formulation Day 1, Group 2 Repeat Preparation, nominal 1 (ppm) OR (mg/mL)); 95.7 % of Nominal (dose formulation Day 1, Group 3, nominal 4 (ppm) OR (mg/mL)); 100.7 % of Nominal (dose formulation Day 1, Group 4, nominal 15 (ppm) OR (mg/mL)); 90.1 % of Nominal (dose formulation Week 2, Group 2, nominal 1 (ppm) OR (mg/mL)). Further, the “ANALYTICAL CONCENTRATION (% of Nominal)” value is reported as 86.8 % of Nominal (dose formulation Week 2, Group 2 Back-up, nominal 1 (ppm) OR (mg/mL)); 95.4 % of Nominal (dose formulation Week 2, Group 3, nominal 4 (ppm) OR (mg/mL)); 102.9 % of Nominal (dose formulation Week 2, Group 4, nominal 15 (ppm) OR (mg/mL)); 93.2 % of Nominal (dose formulation Week 3, Group 2, nominal 1 (ppm) OR (mg/mL)); 94.8 % of Nominal (dose formulation Week 3, Group 3, nominal 4 (ppm) OR (mg/mL)); 100.2 % of Nominal (dose formulation Week 3, Group 4, nominal 15 (ppm) OR (mg/mL)). Moreover, the “ANALYTICAL CONCENTRATION (% of Nominal)” value by setting is: (dose formulation Week 4, Group 2, nominal 1 (ppm) OR (mg/mL)) 92.8 % of Nominal; (dose formulation Week 4, Group 3, nominal 4 (ppm) OR (mg/mL)) 96.9 % of Nominal; (dose formulation Week 4, Group 4, nominal 15 (ppm) OR (mg/mL)) 101.0 % of Nominal; (dose formulation Week 5, Group 2, nominal 1 (ppm) OR (mg/mL)) 94.9 % of Nominal; (dose formulation Week 5, Group 3, nominal 4 (ppm) OR (mg/mL)) 97.7 % of Nominal; (dose formulation Week 5, Group 4, nominal 15 (ppm) OR (mg/mL)) 101.1 % of Nominal.

The values are drawn from patent US20170368082A1, “FORMULATIONS OF BRINCIDOFOVIR” (priority 2016, published 2017).
